Assay results: PMC6978363, “Chaperone mediated detection of small molecule target binding in cells” (Nature Communications, 2020)

Experiments:
Test in all cases: biochemical
Settings in all cases: read-out: % Inhibition (at 10mM)
[1] = target: T1, CamKII_alpha (Homo sapiens, UniProt Q9UQM7)
T1 construct: gene CAMK2A

[2] = target: KSR2 (Homo sapiens, UniProt Q6VAB6)
[3] = target: MARK3 (Homo sapiens, UniProt P27448)
[4] = target: MAPKAPK2 (Homo sapiens, UniProt P49137)
[5] = target: JAK1 (Homo sapiens, UniProt P23458)
[6] = target: JAK3 (Homo sapiens, UniProt P52333)
[7] = target: EphA8 (Homo sapiens, UniProt P29322)
[8] = target: T2, PhK_gamma1 (Homo sapiens, UniProt Q16816)
T2 construct: gene PHKG1
T2 sequence (Q16816 whole entry): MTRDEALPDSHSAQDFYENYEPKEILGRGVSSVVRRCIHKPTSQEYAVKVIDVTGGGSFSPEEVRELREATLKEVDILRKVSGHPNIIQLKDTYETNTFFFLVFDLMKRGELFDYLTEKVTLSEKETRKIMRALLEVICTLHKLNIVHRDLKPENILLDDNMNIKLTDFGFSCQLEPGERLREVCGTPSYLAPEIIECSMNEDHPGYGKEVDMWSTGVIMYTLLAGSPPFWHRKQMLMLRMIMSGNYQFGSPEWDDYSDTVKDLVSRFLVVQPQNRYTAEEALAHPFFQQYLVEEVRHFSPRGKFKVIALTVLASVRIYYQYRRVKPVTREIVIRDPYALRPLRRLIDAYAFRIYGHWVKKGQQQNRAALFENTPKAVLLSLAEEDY

[9] = target: Axl (Homo sapiens, UniProt P30530)
[10] = target: T3, PhK_gamma2 (Homo sapiens, UniProt P15735)
T3 construct: gene PHKG2

[11] = target: T4, CK1_alpha1L (Homo sapiens, UniProt Q8N752)
T4 construct: gene CSNK1A1L

[12] = target: T5, KHS1 (Homo sapiens, UniProt Q9Y4K4)
T5 construct: gene MAP4K5

[13] = target: T6, PKD2 (Homo sapiens, UniProt Q9BZL6)
T6 construct: gene PRKD2

[14] = target: T7, YSK4 (Homo sapiens, UniProt Q56UN5)
T7 construct: gene MAP3K19

[15] = target: Src (Homo sapiens, UniProt P12931)
[16] = target: GRK7 (Homo sapiens, UniProt Q8WTQ7)
[17] = target: T8, Rse (Homo sapiens, UniProt Q06418)
T8 construct: gene TYRO3

[18] = target: SBK1 (Homo sapiens, UniProt Q52WX2)
Sequence of SBK1 (Q52WX2 whole entry): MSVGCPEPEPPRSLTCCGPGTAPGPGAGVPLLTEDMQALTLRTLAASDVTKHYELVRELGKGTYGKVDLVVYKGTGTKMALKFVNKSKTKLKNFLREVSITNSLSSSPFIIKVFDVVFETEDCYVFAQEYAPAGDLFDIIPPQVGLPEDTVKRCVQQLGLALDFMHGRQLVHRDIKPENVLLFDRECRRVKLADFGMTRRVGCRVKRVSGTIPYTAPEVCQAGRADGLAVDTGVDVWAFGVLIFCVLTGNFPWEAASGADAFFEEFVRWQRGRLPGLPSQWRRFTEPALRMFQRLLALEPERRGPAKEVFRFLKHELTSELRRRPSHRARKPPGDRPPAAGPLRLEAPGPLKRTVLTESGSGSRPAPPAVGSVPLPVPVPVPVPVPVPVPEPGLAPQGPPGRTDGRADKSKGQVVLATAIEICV

[19] = target: MARK2 (Homo sapiens, UniProt Q7KZI7)
[20] = target: T9, PDGFR_alpha (Homo sapiens, UniProt P16234)
T9 construct: gene PDGFRA

[21] = target: EphB3 (Homo sapiens, UniProt P54753)
[22] = target: NEK1 (Homo sapiens, UniProt Q96PY6)
Sequence of NEK1 (Q96PY6 whole entry): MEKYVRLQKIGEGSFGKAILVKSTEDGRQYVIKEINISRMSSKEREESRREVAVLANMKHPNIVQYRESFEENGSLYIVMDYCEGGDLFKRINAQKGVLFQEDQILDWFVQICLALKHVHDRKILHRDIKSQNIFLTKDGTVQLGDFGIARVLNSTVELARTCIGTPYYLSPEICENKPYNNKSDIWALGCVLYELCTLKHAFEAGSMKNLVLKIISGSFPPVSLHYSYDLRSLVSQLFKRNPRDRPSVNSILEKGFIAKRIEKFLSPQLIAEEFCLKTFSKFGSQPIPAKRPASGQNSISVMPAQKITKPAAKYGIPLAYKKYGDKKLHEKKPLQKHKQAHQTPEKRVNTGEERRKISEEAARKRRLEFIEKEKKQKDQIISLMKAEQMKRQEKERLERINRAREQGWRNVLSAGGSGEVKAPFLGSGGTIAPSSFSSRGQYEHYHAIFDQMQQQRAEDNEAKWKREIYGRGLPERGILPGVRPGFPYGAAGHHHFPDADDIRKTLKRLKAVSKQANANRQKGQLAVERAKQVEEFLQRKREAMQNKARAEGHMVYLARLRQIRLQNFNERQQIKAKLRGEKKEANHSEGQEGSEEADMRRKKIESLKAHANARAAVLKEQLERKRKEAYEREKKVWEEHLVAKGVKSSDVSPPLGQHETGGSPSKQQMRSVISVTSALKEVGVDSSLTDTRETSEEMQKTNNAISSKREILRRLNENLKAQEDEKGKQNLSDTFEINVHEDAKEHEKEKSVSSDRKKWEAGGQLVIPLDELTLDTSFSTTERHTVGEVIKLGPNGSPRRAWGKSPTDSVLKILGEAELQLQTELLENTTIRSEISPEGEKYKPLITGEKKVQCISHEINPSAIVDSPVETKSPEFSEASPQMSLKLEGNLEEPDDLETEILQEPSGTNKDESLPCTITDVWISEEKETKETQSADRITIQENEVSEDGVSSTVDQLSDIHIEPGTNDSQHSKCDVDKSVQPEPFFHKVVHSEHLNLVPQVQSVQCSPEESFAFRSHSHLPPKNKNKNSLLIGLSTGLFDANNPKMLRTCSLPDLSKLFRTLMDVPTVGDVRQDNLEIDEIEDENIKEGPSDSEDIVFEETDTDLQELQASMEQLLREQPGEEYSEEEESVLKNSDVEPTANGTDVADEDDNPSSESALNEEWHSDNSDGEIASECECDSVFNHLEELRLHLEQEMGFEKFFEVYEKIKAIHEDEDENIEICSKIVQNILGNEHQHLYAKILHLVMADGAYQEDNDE

[23] = target: FGFR3 (Homo sapiens, UniProt P22607)
[24] = target: T10, MSK1 (Homo sapiens, UniProt O75582)
T10 construct: gene RPS6KA5
T10 sequence (O75582 whole entry): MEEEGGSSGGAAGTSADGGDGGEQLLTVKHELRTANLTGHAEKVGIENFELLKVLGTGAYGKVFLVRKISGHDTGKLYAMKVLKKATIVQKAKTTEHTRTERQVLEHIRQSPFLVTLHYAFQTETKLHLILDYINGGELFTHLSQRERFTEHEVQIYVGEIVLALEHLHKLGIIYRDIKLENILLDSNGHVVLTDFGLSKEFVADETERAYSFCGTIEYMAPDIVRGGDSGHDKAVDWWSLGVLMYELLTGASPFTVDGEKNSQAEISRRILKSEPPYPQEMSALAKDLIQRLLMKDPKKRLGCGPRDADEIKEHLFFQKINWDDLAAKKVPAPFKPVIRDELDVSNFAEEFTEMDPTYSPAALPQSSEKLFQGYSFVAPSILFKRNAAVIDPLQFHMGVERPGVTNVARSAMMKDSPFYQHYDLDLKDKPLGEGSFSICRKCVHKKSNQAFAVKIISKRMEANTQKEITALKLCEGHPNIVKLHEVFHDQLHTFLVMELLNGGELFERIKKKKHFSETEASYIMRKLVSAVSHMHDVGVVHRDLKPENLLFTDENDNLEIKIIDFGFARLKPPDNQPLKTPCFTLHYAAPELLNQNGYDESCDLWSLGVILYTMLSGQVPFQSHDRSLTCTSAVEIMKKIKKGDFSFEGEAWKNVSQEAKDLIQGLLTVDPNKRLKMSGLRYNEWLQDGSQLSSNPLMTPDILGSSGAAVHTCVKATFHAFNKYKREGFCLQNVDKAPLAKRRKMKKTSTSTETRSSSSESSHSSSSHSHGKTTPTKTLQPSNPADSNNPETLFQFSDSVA

[25] = target: PLK2 (Homo sapiens, UniProt Q9NYY3)
[26] = target: T11, CK2_alpha2 (Homo sapiens, UniProt P19784)
T11 construct: gene CSNK2A2
T11 sequence (P19784 whole entry): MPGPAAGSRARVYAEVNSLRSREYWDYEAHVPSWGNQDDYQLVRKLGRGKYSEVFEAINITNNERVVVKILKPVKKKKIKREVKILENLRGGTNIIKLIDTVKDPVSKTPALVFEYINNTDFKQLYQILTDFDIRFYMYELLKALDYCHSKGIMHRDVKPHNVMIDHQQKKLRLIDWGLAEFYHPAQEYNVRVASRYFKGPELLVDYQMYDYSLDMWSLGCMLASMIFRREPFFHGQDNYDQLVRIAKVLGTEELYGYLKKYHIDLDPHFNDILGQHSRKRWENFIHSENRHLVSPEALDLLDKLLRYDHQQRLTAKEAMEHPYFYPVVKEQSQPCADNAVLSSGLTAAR

[27] = target: SGK2 (Homo sapiens, UniProt Q9HBY8)
[28] = target: T12, FAK (Homo sapiens, UniProt Q05397)
T12 construct: gene PTK2

[29] = target: MAP4K4 (Homo sapiens, UniProt O95819)
[30] = target: TYK2 (Homo sapiens, UniProt P29597)
[31] = target: T13, DCAMKL1 (Homo sapiens, UniProt O15075)
T13 construct: gene DCLK1

[32] = target: T14, CHK2 (Homo sapiens, UniProt O96017)
T14 construct: gene CHEK2

[33] = target: T15, MLK1 (Homo sapiens, UniProt P80192)
T15 construct: gene MAP3K9

[34] = target: T16, PDK1(direct) (Homo sapiens, UniProt O15530)
T16 construct: gene PDPK1; direct
T16 sequence (O15530 whole entry): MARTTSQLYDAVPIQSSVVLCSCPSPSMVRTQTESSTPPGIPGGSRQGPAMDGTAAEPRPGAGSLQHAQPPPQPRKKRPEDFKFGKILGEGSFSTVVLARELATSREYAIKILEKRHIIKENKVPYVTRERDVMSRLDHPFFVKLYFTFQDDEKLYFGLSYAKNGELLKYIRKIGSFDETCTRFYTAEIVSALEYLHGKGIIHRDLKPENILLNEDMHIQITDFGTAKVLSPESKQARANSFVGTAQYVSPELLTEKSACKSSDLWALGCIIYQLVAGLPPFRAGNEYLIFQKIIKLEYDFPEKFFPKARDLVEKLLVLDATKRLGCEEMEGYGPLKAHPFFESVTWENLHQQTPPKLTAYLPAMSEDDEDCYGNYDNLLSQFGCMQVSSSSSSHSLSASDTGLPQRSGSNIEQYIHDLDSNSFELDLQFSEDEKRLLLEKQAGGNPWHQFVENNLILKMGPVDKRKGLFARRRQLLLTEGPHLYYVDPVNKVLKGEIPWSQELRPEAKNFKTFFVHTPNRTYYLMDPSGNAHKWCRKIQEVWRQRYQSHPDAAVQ

[35] = target: T17, CK1_gamma1 (Homo sapiens, UniProt Q9HCP0)
T17 construct: gene CSNK1G1

[36] = target: T18, MSSK1 (Homo sapiens, UniProt Q9UPE1)
T18 construct: gene SRPK3

[37] = target: T19, PKC_beta1 (Homo sapiens, UniProt P05771)
T19 construct: gene PRKCB; isoform beta1

T1 sequence (Q9UQM7 whole entry): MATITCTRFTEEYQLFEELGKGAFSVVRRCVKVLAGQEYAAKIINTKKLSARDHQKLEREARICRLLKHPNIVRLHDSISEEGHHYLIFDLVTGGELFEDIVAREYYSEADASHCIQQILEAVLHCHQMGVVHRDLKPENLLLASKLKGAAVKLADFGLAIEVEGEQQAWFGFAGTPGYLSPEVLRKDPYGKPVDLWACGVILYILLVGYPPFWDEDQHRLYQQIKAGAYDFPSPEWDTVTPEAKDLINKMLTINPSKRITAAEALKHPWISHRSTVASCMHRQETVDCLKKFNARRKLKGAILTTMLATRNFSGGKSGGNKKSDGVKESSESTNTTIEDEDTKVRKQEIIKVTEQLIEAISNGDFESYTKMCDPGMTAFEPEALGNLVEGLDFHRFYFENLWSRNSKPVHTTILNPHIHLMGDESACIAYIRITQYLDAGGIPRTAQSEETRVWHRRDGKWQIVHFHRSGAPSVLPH
Sequence of MARK3 (P27448 whole entry): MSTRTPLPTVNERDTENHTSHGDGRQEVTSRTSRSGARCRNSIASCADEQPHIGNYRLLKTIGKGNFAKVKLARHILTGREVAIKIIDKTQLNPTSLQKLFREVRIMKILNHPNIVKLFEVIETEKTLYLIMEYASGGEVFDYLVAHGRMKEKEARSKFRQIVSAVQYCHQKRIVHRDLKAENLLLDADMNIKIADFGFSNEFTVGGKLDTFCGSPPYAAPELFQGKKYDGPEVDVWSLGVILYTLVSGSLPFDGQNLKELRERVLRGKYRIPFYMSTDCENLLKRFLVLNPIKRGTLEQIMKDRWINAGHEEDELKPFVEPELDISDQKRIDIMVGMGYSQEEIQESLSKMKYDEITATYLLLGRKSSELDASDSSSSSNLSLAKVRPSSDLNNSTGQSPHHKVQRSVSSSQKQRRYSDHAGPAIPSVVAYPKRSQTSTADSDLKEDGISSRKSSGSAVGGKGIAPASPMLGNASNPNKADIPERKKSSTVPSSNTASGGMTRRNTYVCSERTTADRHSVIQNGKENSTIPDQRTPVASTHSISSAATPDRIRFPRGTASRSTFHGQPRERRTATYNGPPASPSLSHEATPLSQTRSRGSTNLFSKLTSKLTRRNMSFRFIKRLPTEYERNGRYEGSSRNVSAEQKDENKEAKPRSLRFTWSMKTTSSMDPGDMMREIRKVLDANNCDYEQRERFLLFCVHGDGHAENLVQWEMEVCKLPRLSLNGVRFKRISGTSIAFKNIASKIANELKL

- inhibition [1]: 2.5%
- inhibition [2]: 0%
- inhibition [3]: 6.5%
- inhibition [4]: 7.5%
- inhibition [5]: 0%
- inhibition [6]: 2%
- inhibition [7]: 8%
- inhibition [8]: 7.5%
- inhibition [9]: 5%
- inhibition [10]: -0.5%
- inhibition [11]: 3%
- inhibition [12]: 40.5%
- inhibition [13]: 80.5%
- inhibition [14]: 1%
- inhibition [15]: 37.5%
- inhibition [16]: 5.5%
- inhibition [17]: 10.5%
- inhibition [18]: 8.5%
- inhibition [19]: 5.5%
- inhibition [20]: 1.5%
- inhibition [21]: 6.5%
- inhibition [22]: 1.5%
- inhibition [23]: -6%
- inhibition [24]: 2.5%
- inhibition [25]: 2.5%
- inhibition [26]: 6.5%
- inhibition [27]: 3.5%
- inhibition [28]: 7.5%
- inhibition [29]: -0.5%
- inhibition [30]: 4.5%
- inhibition [31]: -2.5%
- inhibition [32]: 20%
- inhibition [33]: 6.5%
- inhibition [34]: 9%
- inhibition [35]: 2.5%
- inhibition [36]: 5%
- inhibition [37]: 5%
Compound: CC(C)(O)CC(=O)NCCn1ccc2ncnc(Nc3ccc(Oc4cccc(C(F)(F)F)c4)c(Cl)c3)c21 [TAK-285]
